The numbers were not newly measured in patent US20120078160A1, “METHOD AND APPARATUS FOR CANCER THERAPY” (Gradiant Research, LLC, priority 2009, published 2012), which cites them from elsewhere.

One may read the pKa as the pH at which an ionisable group is half protonated.

SMILES strings stand for the structures.

With `O=c1[nH]cc(F)c(=O)[nH]1` [5FU, 5-fluorouracil], the pKa is 7.93. Also, where the note is “pH 7.4”, the “Koct, octanol water partition coefficient” value is listed as 0.129.
